Key:
[1] = tested on: senescent human adult lung fibroblasts; assay: Apoptosis of senescent lung fibroblasts (cleaved caspase-3, DAPI); format: cell-based; settings: Fibroblast; replicatively senescent human adult lung fibroblasts, 96 hours, 6-point dose-response, N=3
Protocol: Human adult lung fibroblasts were replicatively passaged until senescence (confirmed by RNA and senescence associated beta galactosidase staining). In a parallel experiment, low passage proliferating fibroblasts from the same donor were compared. Cells were plated into 96-well plates and treated with the indicated compound (6-point dose-response) and incubated for 96 hours. Cells were then fixed using 4% PFA, permeabilized using 0.25% triton x-100, and nuclear stained using a primary antibody for cleaved caspase-3, secondary fluorescence conjugated antibody, and DAPI. Cells were then imaged using a 4× objective on a Cytation5 microscope and cell counts were quantified using automated software (Biotek Gen5). Data shown are the EC50 values calculated for each compounds efficacy to induce apoptosis in senescence vs. proliferating lung fibroblasts, from the calculated dose-response curves, N=3 independent experiments.

[2] = Stability in human plasma; format: in vitro ADME
Protocol: (§1) The stability of F-4N in plasma was assessed (FIG. 27). Compounds were incubated with human or mouse plasma. The percent of F-4N recovered was analyzed by LC-MS. Warfarin was used as a control for stable compound, and propantheline was used as a control for an unstable compound. Analysis was performed by Cyprotex (Framingham, MA).

[3] = Stability in mouse plasma; format: in vitro ADME
Protocol: as §1

[4] = Microsomal stability, mouse liver derived microsomes; format: in vitro ADME
Protocol: The microsomal stability of F-4N was also assessed (FIG. 28). Compounds were incubated with human or mouse liver derived microsomes. The percent of F-4N recovered was analyzed by LC-MS. Verapamil was used as a control for a rapidly degraded compound. Analysis was performed by Cyprotex (Framingham, MA).

mouse model of NASH = assay: Mouse model of NASH (CD-HFD); format: in vivo; settings: 10 mg/kg daily i.p. for 2 weeks
Protocol: FIGS. 20A-20D show the efficacy of F-4N in a mouse model of NASH. FIG. 20A) Study design and weight changes of mice treated with 10 mg/kg F-4N daily i.p. for 2 weeks. FIG. 20B). Representative H&E and Sirius Red liver histology. FIG. 20C) Objective automated quantification of Sirius Red staining. FIG. 20D) Liver weight and colon weight changes. N=5 chow diet, N=10 holine deficient-high fat diet (CD-HFD) vehicle, N=10 CD-HFD+F-4N.
Mice in a mouse model of NASH were treated with 10 mg/kg F-4N daily i.p. for 2 weeks (FIG. 20A). Livers from treated mice were analyzed by H&E and Sirius Red staining (FIG. 20B). Sirius Red staining was quantified (FIG. 20C). Liver weight and colon weight changes were also assessed (FIG. 20D).

[5] = tested on: sections of lung tissue from IPF patient transplant lungs; assay: IPF patient-derived organotypic ex vivo culture; format: cell-based, human; settings: 3 μM, 4 days ex vivo, N=3 patient samples
Protocol: An IPF patient-derived organotypic ex vivo culture was used to determine efficacy of F-4N. Sections of lung tissue (about […]) were cut from IPF patient transplant lungs and cultured for 4 days ex vivo with DMSO (0.1%) or F-4N (3 μM). Lung tissue slices were collected, RNA was isolated, and qPCR analysis was performed (FIG. 31). Media was also collected for ELISA analysis for IL-6 (FIG. 31B). N=3 patient samples.

O=c1c(O)c(-c2ccc(OCc3ccncc3)cc2)oc2ccccc12 [F—4N]
EC50 [1]: 800 nM
stability in plasma (percent recovered, LC-MS) [2]: stable
stability in plasma (percent recovered, LC-MS) [3]: stable
microsomal stability: half-life and clearance rate [4]: in line with many clinically approved orally administered drugs
efficacy in NASH model (histology, Sirius Red, liver weight, liver function, triglyceride, hydroxyproline) (mouse model of NASH): effective to treat NASH
liver expression of profibrotic genes, inflammatory genes, and Stk17b (qPCR) (mouse model of NASH): effectively reduced expression
expression of fibrotic markers (qPCR) [5]: reduced expression
expression of mature alveolar epithelial cell markers (qPCR) [5]: enhanced expression
